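Briefly, cells in 96-well plates were exposed to five compound concentrations for 48 h, and endpoints were estimated by linear interpolation. GI50 = concentration required for 50% inhibition of growth.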 Activity calls are given as the source filed them. Rule as the data show it: active = GI50 up to about 1.1 µM and inactive = higher.
Legend:
Experiment in all cases: NCI-60 cell line screen, 48 h
TK-10 = test system: TK-10
EKVX = test system: EKVX
MOLT-4 = test system: MOLT-4
SK-MEL-5 = test system: SK-MEL-5
HL-60 = test system: HL-60
IGROV-1 = test system: IGROV-1
CAKI-1 = test system: CAKI-1
NCI-H460 = test system: NCI-H460
SK-OV-3 = test system: SK-OV-3
SN12C = test system: SN12C
UACC-62 = test system: UACC-62
HCT-116 = test system: HCT-116
786-0 = test system: 786-0
DU-145 = test system: DU-145
HOP-62 = test system: HOP-62
SK-MEL-28 = test system: SK-MEL-28
MDA-MB-435 = test system: MDA-MB-435
BT-549 = test system: BT-549
T47D = test system: T47D
OVCAR-8 = test system: OVCAR-8
HT-29 = test system: HT-29
RPMI-8226 = test system: RPMI-8226
HCT-15 = test system: HCT-15
K562 = test system: K562
HOP-92 = test system: HOP-92
KM12 = test system: KM12
ACHN = test system: ACHN
UO-31 = test system: UO-31
A549 = test system: A549
M14 = test system: M14
NCI-H226 = test system: NCI-H226
OVCAR-4 = test system: OVCAR-4
COLO 205 = test system: COLO 205
SK-MEL-2 = test system: SK-MEL-2
SF-539 = test system: SF-539
MCF7 = test system: MCF7
NCI-H23 = test system: NCI-H23
PC-3 = test system: PC-3
U-251 = test system: U-251
OVCAR-5 = test system: OVCAR-5
SR = test system: SR
A498 = test system: A498
CCRF-CEM = test system: CCRF-CEM
SW-620 = test system: SW-620
NCI/ADR-RES = test system: NCI/ADR-RES
RXF 393 = test system: RXF 393
SF-295 = test system: SF-295
LOX IMVI = test system: LOX IMVI
SNB-19 = test system: SNB-19
MDA-N = test system: MDA-N
MDA-MB-231 = test system: MDA-MB-231
NCI-H522 = test system: NCI-H522
UACC-257 = test system: UACC-257
OVCAR-3 = test system: OVCAR-3
SF-268 = test system: SF-268
SNB-75 = test system: SNB-75
HCC 2998 = test system: HCC 2998
Malme-3M = test system: Malme-3M
Hs-578T = test system: Hs-578T

Measured: GI50

O=C(O)CC(CC(=O)O)n1cccc1
> 100 µM: HCT-15
inactive: TK-10 > 100 µM | EKVX > 100 µM | MOLT-4 > 100 µM | SK-MEL-5 > 100 µM | HL-60 > 100 µM | IGROV-1 > 100 µM | CAKI-1 > 100 µM | NCI-H460 > 100 µM | SK-OV-3 > 100 µM | SN12C > 100 µM | UACC-62 > 100 µM | HCT-116 > 100 µM | 786-0 > 100 µM | DU-145 > 100 µM | HOP-62 > 100 µM | SK-MEL-28 > 100 µM | MDA-MB-435 > 100 µM | BT-549 > 100 µM | T47D > 100 µM | OVCAR-8 > 100 µM | HT-29 > 100 µM | RPMI-8226 > 100 µM | K562 > 100 µM | HOP-92 > 100 µM | KM12 > 100 µM | ACHN > 100 µM | UO-31 > 100 µM | A549 > 100 µM | M14 > 100 µM | NCI-H226 > 100 µM | OVCAR-4 > 100 µM | COLO 205 > 100 µM | SK-MEL-2 > 100 µM | SF-539 > 100 µM | MCF7 > 100 µM | NCI-H23 > 100 µM | PC-3 > 100 µM | U-251 > 100 µM | OVCAR-5 > 100 µM | SR > 100 µM | A498 > 100 µM | CCRF-CEM > 100 µM | SW-620 > 100 µM | NCI/ADR-RES > 100 µM | RXF 393 > 100 µM | SF-295 > 100 µM | LOX IMVI > 100 µM | SNB-19 > 100 µM | MDA-N > 100 µM | MDA-MB-231 > 100 µM | NCI-H522 > 100 µM | UACC-257 > 100 µM | OVCAR-3 > 100 µM

O=C1CCCC1C(=O)Nc1ccc2ccccc2c1 (configuration not stated)
inactive: TK-10 > 100 µM | EKVX 32.1 µM | MOLT-4 36.2 µM | SK-MEL-5 > 100 µM | HL-60 35.6 µM | IGROV-1 > 100 µM | CAKI-1 > 100 µM | NCI-H460 > 100 µM | SK-OV-3 > 100 µM | SN12C > 100 µM | UACC-62 > 100 µM | HCT-116 > 100 µM | 786-0 > 100 µM | DU-145 > 100 µM | HOP-62 > 100 µM | SK-MEL-28 > 100 µM | MDA-MB-435 > 100 µM | BT-549 > 100 µM | T47D 62.5 µM | OVCAR-8 > 100 µM | HT-29 55.7 µM | RPMI-8226 59.2 µM | SF-268 > 100 µM | K562 53.5 µM | HOP-92 > 100 µM | SNB-75 29.4 µM | KM12 84.9 µM | HCC 2998 > 100 µM | Malme-3M > 100 µM | ACHN > 100 µM | UO-31 > 100 µM | A549 > 100 µM | M14 > 100 µM | NCI-H226 > 100 µM | OVCAR-4 > 100 µM | COLO 205 > 100 µM | SK-MEL-2 > 100 µM | MCF7 > 100 µM | NCI-H23 > 100 µM | PC-3 > 100 µM | U-251 > 100 µM | OVCAR-5 > 100 µM | SR > 100 µM | A498 > 100 µM | CCRF-CEM 57 µM | SW-620 > 100 µM | NCI/ADR-RES > 100 µM | RXF 393 44.5 µM | SF-295 > 100 µM | LOX IMVI > 100 µM | SNB-19 > 100 µM | MDA-N > 100 µM | MDA-MB-231 > 100 µM | NCI-H522 49 µM | UACC-257 > 100 µM | OVCAR-3 > 100 µM
> 100 µM: HCT-15

COc1ccc(OC)c2c1C(=O)C(Cl)=C(N1CCN(CCOCCO)CC1)C2=O
7.38 µM: HCT-15
active: HL-60 1.08 µM
inactive: TK-10 19 µM | EKVX 18.9 µM | MOLT-4 4.32 µM | SK-MEL-5 16.5 µM | Hs-578T 16.1 µM | IGROV-1 7.31 µM | NCI-H460 18.8 µM | SK-OV-3 19.6 µM | SN12C 12.4 µM | UACC-62 10.5 µM | HCT-116 4.66 µM | 786-0 5.78 µM | DU-145 18.6 µM | HOP-62 5.07 µM | SK-MEL-28 16.1 µM | MDA-MB-435 14.4 µM | BT-549 14.8 µM | T47D 4.65 µM | OVCAR-8 16.6 µM | HT-29 6 µM | RPMI-8226 2.94 µM | SF-268 13.6 µM | K562 1.91 µM | HOP-92 17.7 µM | SNB-75 15.9 µM | KM12 20.5 µM | HCC 2998 12.4 µM | Malme-3M 19.8 µM | ACHN 16.6 µM | UO-31 16.4 µM | A549 20.5 µM | M14 17.2 µM | NCI-H226 16.7 µM | OVCAR-4 17.9 µM | COLO 205 > 10 µM | SF-539 17.8 µM | MCF7 6.12 µM | NCI-H23 7.6 µM | PC-3 6.37 µM | U-251 21.4 µM | OVCAR-5 21 µM | SR 3.21 µM | A498 16.9 µM | CCRF-CEM 2.72 µM | SW-620 8.85 µM | NCI/ADR-RES 26.5 µM | RXF 393 19 µM | SF-295 18.7 µM | SNB-19 16 µM | MDA-MB-231 13.9 µM | NCI-H522 4.3 µM | UACC-257 17.3 µM | OVCAR-3 17.3 µM

CC(C)=CCCC1(Sc2ccccc2)C(=O)OCC1C=C(C)C (configuration not stated)
inactive: TK-10 34.8 µM | EKVX 19 µM | MOLT-4 7.31 µM | SK-MEL-5 20.3 µM | IGROV-1 16.8 µM | CAKI-1 23.2 µM | NCI-H460 18.3 µM | SK-OV-3 21.1 µM | SN12C 15 µM | HCT-116 11.5 µM | 786-0 17.7 µM | HOP-62 48.9 µM | SK-MEL-28 47.3 µM | MDA-MB-435 32.1 µM | BT-549 36.3 µM | T47D 22.4 µM | OVCAR-8 30.5 µM | RPMI-8226 21.5 µM | SF-268 38.6 µM | SNB-75 36.6 µM | KM12 27 µM | HCC 2998 29.8 µM | Malme-3M 17.5 µM | ACHN 32.5 µM | UO-31 22.6 µM | A549 13.5 µM | M14 17.3 µM | NCI-H226 24.3 µM | OVCAR-4 29 µM | COLO 205 23.2 µM | SK-MEL-2 18.5 µM | SF-539 20.6 µM | MCF7 38.9 µM | NCI-H23 31.3 µM | PC-3 31.8 µM | U-251 27.7 µM | OVCAR-5 21.3 µM | A498 52.4 µM | CCRF-CEM 32.4 µM | SW-620 61.9 µM | NCI/ADR-RES 21.2 µM | RXF 393 17.1 µM | SF-295 36.7 µM | LOX IMVI 16.5 µM | SNB-19 21.5 µM | MDA-N 19.9 µM | MDA-MB-231 47.2 µM | NCI-H522 23.2 µM | UACC-257 17.5 µM | OVCAR-3 17.3 µM
29.9 µM: HCT-15
